Data from ChEMBL document CHEMBL4765397, “Design, synthesis and bioevaluation of novel substituted triazines as potential dual PI3K/mTOR inhibitors” (Eur J Med Chem, 2020).
pIC50: −log10 of the molar value. Activity calls are given as the source filed them. The calls are words filed in the database; no cut-off is given here.

Tests used:
[1] = target: Serine/threonine-protein kinase mTOR (Homo sapiens, UniProt P42345); assay: Inhibition of mTOR (unknown origin) using ULight-4E-BP1 as substrate measured after 45 mins in presence of ATP by LANCE Ultra assay
[2] = target: T1, Phosphatidylinositol 4,5-bisphosphate 3-kinase catalytic subunit delta isoform (Homo sapiens, UniProt O00329); assay: Inhibition of PI3Kdelta (unknown origin) using PIP2 as substrate measured after 1 hr in presence of ATP by ADP-Glo reagent based assay
T1 sequence (O00329 whole entry): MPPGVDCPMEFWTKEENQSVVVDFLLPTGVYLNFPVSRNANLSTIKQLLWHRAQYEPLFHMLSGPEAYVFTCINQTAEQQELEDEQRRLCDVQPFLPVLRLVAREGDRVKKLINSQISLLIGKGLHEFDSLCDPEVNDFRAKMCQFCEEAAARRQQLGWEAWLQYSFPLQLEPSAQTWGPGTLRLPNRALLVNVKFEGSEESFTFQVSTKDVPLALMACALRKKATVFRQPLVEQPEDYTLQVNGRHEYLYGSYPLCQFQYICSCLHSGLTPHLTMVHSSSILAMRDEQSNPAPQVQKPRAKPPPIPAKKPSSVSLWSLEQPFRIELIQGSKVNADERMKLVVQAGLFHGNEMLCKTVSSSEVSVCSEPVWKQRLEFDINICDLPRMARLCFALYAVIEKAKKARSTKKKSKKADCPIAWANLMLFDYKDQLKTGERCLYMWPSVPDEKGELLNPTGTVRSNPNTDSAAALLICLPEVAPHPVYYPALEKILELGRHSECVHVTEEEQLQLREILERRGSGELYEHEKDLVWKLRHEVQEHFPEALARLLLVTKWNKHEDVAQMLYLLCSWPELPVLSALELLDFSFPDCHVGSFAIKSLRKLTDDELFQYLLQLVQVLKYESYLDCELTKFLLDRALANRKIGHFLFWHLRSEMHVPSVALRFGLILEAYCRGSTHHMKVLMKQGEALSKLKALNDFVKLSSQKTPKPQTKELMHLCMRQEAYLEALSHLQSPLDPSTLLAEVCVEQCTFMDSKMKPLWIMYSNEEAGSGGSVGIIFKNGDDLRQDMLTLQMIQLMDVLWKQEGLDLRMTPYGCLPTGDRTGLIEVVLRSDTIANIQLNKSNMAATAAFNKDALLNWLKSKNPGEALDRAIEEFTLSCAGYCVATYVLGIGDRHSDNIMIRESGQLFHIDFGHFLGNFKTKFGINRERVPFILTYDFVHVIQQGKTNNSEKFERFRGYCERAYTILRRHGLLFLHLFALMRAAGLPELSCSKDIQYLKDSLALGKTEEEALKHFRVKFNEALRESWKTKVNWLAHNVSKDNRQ

MDA-MB-231 = assay: Antiproliferative activity against human MDA-MB-231 cells assessed as reduction in cell viability after 48 hrs by MTT assay; type: functional, cell-based; settings: MDA-MB-231, 48 h
HeLa = assay: Antiproliferative activity against human HeLa cells assessed as reduction in cell viability after 48 hrs by MTT assay; type: functional, cell-based
CNE-2 = assay: Antiproliferative activity against human CNE2 cells assessed as reduction in cell viability after 48 hrs by MTT assay; type: functional, cell-based; settings: CNE-2, 48 h
HCT-116 [3] = assay: Antiproliferative activity against human HCT116 cells assessed as reduction in cell viability after 48 hrs by MTT assay; type: functional, cell-based; settings: HCT-116, 48 h
HepG2 = assay: Antiproliferative activity against human HepG2 cells assessed as reduction in cell viability after 48 hrs by MTT assay; type: functional, cell-based; settings: HepG2, 48 h
MCF7 = assay: Antiproliferative activity against human MCF-7 cells assessed as reduction in cell viability after 48 hrs by MTT assay; type: functional, cell-based; settings: MCF7, 48 h
HCT-116 [4] = assay: Inhibition of PI3K/mTOR signaling in human HCT116 cells assessed as reduction in AKT phosphorylation at 10 uM measured by Western blot analysis; type: cell-based
HCT-116 [5] = assay: Inhibition of PI3K/mTOR signaling in human HCT116 cells assessed as reduction in […] phosphorylation at 10 uM measured by Western blot analysis; type: cell-based
[6] = Metabolic stability in artificial gastrointestinal fluids
[7] = Metabolic stability in rat liver microsomes assessed as compound remaining measured after 45 mins; type: ADME, Microsome; settings: 0.75 h

In the case of `CS(=O)(=O)N1CCN(C(=O)c2ccc3nc(Nc4ccc(-c5nc(N6CCOCC6)nc(N6CCOCC6)n5)cc4)[nH]c3c2)CC1`, the pIC50 [1] was 4.92.
Work on `O=C(c1ccc2nc(Nc3ccc(-c4nc(N5CCOCC5)nc(N5CCOCC5)n4)cc3)[nH]c2c1)N1CCOCC1` yielded a pIC50 [1] of 4.89, a pIC50 [2] of 7.36 and a pIC50 (MDA-MB-231) of 5.32. For the same molecule, the pIC50 (HeLa) was 5.62, the pIC50 (CNE-2) was 5.16 and the pIC50 (HCT-116 [3]) was 6.52. The pIC50 (HepG2) was 5.89, the pIC50 (MCF7) was 5.92 and the inhibition (HCT-116 [4]) was “Active”. The inhibition (HCT-116 [5]) was “Active”, the Stability [6] was “Stable” and the Stabilty [7] was “Unstable”.
`CN1CCN(C(=O)c2ccc3nc(Nc4ccc(-c5nc(N6CCOCC6)nc(N6CCOCC6)n5)cc4)[nH]c3c2)CC1` showed a pIC50 [1] of 4.88 and a pIC50 [2] of 7.89.
Work on `C[C@H](NC(=O)c1ccc2nc(Nc3ccc(-c4nc(N5CCOCC5)nc(N5CCOCC5)n4)cc3)[nH]c2c1)C(N)=O` yielded a pIC50 [1] of 5.24, a pIC50 [2] of 8.30 and a pIC50 (MDA-MB-231) of 5.72. The pIC50 (HeLa) was 5.89, the pIC50 (CNE-2) was 4.91 and the pIC50 (HCT-116 [3]) was 6.15. The pIC50 (HepG2) was 5.10 and the pIC50 (MCF7) was 6.40.
Molecule `NC(=O)C1CCCN(C(=O)c2ccc3nc(Nc4ccc(-c5nc(N6CCOCC6)nc(N6CCOCC6)n5)cc4)[nH]c3c2)C1` (centres undefined) has a pIC50 [1] of 4.99.
`NC(=O)C1CCN(C(=O)c2ccc3nc(Nc4ccc(-c5nc(N6CCOCC6)nc(N6CCOCC6)n5)cc4)[nH]c3c2)CC1` gave a pIC50 [1] of 4.81 and a pIC50 [2] of 8.64.
Work on `NC(=O)C1(N)CCN(C(=O)c2ccc3nc(Nc4ccc(-c5nc(N6CCOCC6)nc(N6CCOCC6)n5)cc4)[nH]c3c2)CC1` yielded a pIC50 [1] of 5.24.
With `NC(=O)[C@H]1CCCN1C(=O)c1ccc2nc(Nc3ccc(-c4nc(N5CCOCC5)nc(N5CCOCC5)n4)cc3)[nH]c2c1` the pIC50 [1] was 5.25, the pIC50 [2] was 8.29 and the pIC50 (MDA-MB-231) was 5.26. The pIC50 (HeLa) was 5.11, the pIC50 (CNE-2) was 5.14 and the pIC50 (HCT-116 [3]) was 6.05. For the same molecule, the pIC50 (HepG2) was 4.64, the pIC50 (MCF7) was 6.52 and the inhibition (HCT-116 [4]) was “Active”. The inhibition (HCT-116 [5]) was “Active”, the Stability [6] was “Stable” and the Stabilty [7] was “Stable”.
Work on `CN(C)C1CCN(C(=O)c2ccc3nc(Nc4ccc(-c5nc(N6CCOCC6)nc(N6CCOCC6)n5)cc4)[nH]c3c2)CC1` yielded a pIC50 [1] of 4.84.
With `NC(=O)C1CCCCN1C(=O)c1ccc2nc(Nc3ccc(-c4nc(N5CCOCC5)nc(N5CCOCC5)n4)cc3)[nH]c2c1` (centres undefined) the pIC50 [1] was 5.07.
In the case of `NC(=O)[C@@H]1CCCN1C(=O)c1ccc2nc(Nc3ccc(-c4nc(N5CCOCC5)nc(N5CCOCC5)n4)cc3)[nH]c2c1`, the pIC50 [1] was 4.93, the Stability [6] was “Stable” and the Stabilty [7] was “Stable”.
